We go through 67 molecules from US20140148484A1, “PYRAZOLE COMPOUNDS FOR TREATING HAIRLOSS” (Boehringer Ingelheim International GmbH, priority 2012, published 2014).

For this assay, the target named is T1, human CRTH2 receptor (Homo sapiens, UniProt Q9Y5Y4).
T1 construct: host or cells: CHO-K1 (CHO-K1-hCRTH2 cells); membranes prepared in house from the purchased cell line
T1 sequence (Q9Y5Y4 1-395): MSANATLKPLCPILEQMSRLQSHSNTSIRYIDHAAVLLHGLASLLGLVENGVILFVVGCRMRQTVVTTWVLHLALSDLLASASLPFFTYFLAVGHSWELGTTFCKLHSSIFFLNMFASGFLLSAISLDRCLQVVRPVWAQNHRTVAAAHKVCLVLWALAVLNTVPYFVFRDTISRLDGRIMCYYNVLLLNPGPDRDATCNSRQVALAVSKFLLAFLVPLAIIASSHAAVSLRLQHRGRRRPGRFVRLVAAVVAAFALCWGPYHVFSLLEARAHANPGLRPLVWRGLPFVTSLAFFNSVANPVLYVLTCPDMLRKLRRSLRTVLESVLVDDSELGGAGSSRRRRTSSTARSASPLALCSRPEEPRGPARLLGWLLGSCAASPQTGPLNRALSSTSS
The experiment in a line: Human CRTH2 receptor membrane radioligand binding assay (SPA, [3H]-PGD2). The note with it: displacement of [3H]-PGD2 (1 nM) from CHO-K1-hCRTH2 cell membranes, 3 h room temperature. In outline: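 SPA binding using membranes from CHO-K1 cells expressing human CRTH2 (0.5–10 μg protein/well) with 1 nM [3H]-PGD2 in Tris pH 7.4 buffer with 0.1% BSA, 3 h at room temperature. Non-specific binding defined with 1 μM PGD2 or 10 μM CAY10471; inhibition calculated from specific binding.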
Background: Loss of bound radioactivity is the signal in a displacement assay; it reports binding, not function.
Molecule `CCc1nn(Cc2ccc(NC(=O)c3cccc(Cl)c3Cl)cc2)c(CC)c1CC(=O)O` [Example 2.20] showed an inhibitory constant (Ki) of 13.9 nM.
The same measure for `CCc1nn(Cc2ccc(S(=O)(=O)Nc3ccc(Cl)c(F)c3)cc2)c(CC)c1CC(=O)O` [Example 10.5]: 27.8 nM; for `CCc1nn(Cc2ccc(OCc3cccc(C)c3)cc2)c(CC)c1CC(=O)O` [Example 13.13]: 49.9 nM.
The molecule `CCc1nn(Cc2ccc(C(=O)NC3CCC4CCCCC4C3)cc2)c(CC)c1CC(=O)O` (stereo not shown) [Example 9.25] gave a Ki of 32.1 nM.
The value for `CCc1nn(Cc2ccc(NC(=O)c3cccc4c3CCCC4)cc2)c(CC)c1CC(=O)O` [Example 2.21] was 0.5 nM; that for `CCc1nn(Cc2ccc(NC(=O)c3cccc(C)c3Br)cc2)c(CC)c1CC(=O)O` [Example 2.25] was 46.6 nM; that for `Cc1nn(Cc2ccc(NC(=O)c3ccc(C(F)(F)F)cc3)cc2)c(C)c1CCC(=O)O` [Example 8.2] was 125 nM.
The value for `Cc1nn(Cc2ccc(OCc3ccccc3)cc2)c(C)c1CC(=O)O` [Example 13.4] was 325 nM.
The same measure for `Cc1c(CC(=O)O)c(-c2ccccc2)nn1Cc1ccc(NC(=O)c2ccc3ccccc3c2)cc1` [Example 2.12]: 2.3 nM; for `Cc1nn(Cc2ccc(NC(=O)OCc3ccc4ccccc4c3)cc2)c(C)c1CC(=O)O` [Example 3.7]: 0.6 nM; for `Cc1nn(Cc2ccc(C(C)Oc3ccc(Cl)c(Cl)c3)cc2)c(C)c1CC(=O)O` (stereo not shown) [Example 14.4]: 29 nM.
`Cc1nn(Cc2ccc(C(=O)Nc3cc(Cl)cc(Cl)c3)cc2)c(C)c1CC(=O)O` [Example 9.8] displayed a Ki of 31 nM. The Ki values of the last two molecules are within 1.5-fold of each other.
The same measure for `Cc1nn(Cc2ccc(NC(=O)OCc3ccccc3)cc2Cl)c(C)c1CC(=O)O` [Example 3.13]: 4.7 nM.
For `Cc1nn(Cc2ccc(NC(=O)OCc3ccccc3)cc2F)c(C)c1CC(=O)O` [Example 3.14], the affinity, expressed as Ki, was 8.9 nM.
In the case of `Cc1nn(Cc2ccc(NS(=O)(=O)c3ccccc3)cc2)c(C)c1CC(=O)O` [Example 5.1], the Ki came out at 43.9 nM.
The same measure for `Cc1nn(Cc2ccc(NC(=O)CCc3ccccc3)cc2)c(C)c1CC(=O)O` [Example 1.10]: 7.4 nM; for `Cc1nn(Cc2ccc(NC(=O)c3ccc(Cl)c(Cl)c3)cc2Cl)c(C)c1CC(=O)O` [Example 7.15]: 0.6 nM.
`Cc1nn(Cc2ccc(NC(=O)c3ccc(Br)cc3Cl)cc2)c(C)c1CC(=O)O` [Example 1.27] displayed a Ki of 9.3 nM.
The same measure for `Cc1nn(Cc2ccc(NC(=O)c3ccc(Cl)cc3F)cc2)c(C)c1CC(=O)O` [Example 1.19]: 16.2 nM; for `Cc1nn(Cc2ccc(C(=O)Nc3ccc(Cl)c(F)c3)cc2)c(C)c1CC(=O)O` [Example 9.2]: 24.5 nM.
The value for `CCc1nn(Cc2ccc(NC(=O)c3ccc(C(F)(F)F)cc3)cc2)c(C2CC2)c1CC(=O)O` [Example 2.50] was 0.1 nM; that for `Cc1nn(Cc2ccc(C(=O)Nc3ccc(F)c(Cl)c3)cc2)c(C)c1CC(=O)O` [Example 9.4] was 18.6 nM; that for `Cc1nn(Cc2ccc(NS(=O)(=O)c3ccc(Cl)c(Cl)c3)cc2)c(C)c1CC(=O)O` [Example 5.3] was 30.6 nM.
The value for `CCc1nn(C(C)c2ccc(NC(=O)c3ccc(C(F)(F)F)cc3)cc2)c(CC)c1CC(=O)O` (stereo not shown) [Example 17.1] was 0.1 nM; that for `Cc1nn(Cc2ccc(NC(=O)CCc3ccccc3)cc2Cl)c(C)c1CC(=O)O` [Example 7.9] was 2.5 nM.
In turn, `Cc1nn(Cc2ccc(C(=O)Nc3cccc(F)c3)cc2)c(C)c1CC(=O)O` [Example 9.1] yielded a Ki of 1480 nM.
The value for `CCc1nn(Cc2ccc(C(=O)NCc3cc4ccccc4o3)cc2F)c(CC)c1CC(=O)O` [Example 9.28] was 10.4 nM; that for `Cc1nn(Cc2ccc(NC(=O)OCc3ccccc3Br)cc2)c(C)c1CC(=O)O` [Example 3.6] was 14.9 nM.
In the case of `Cc1nn(Cc2ccc(C(C)Oc3ccc(C(F)(F)F)cc3)cc2)c(C)c1CC(=O)O` (stereo not shown) [Example 14.5], the Ki amounted to 253 nM. This Ki is about 17-fold higher than that of the molecule before.
The value for `CCc1nn(Cc2ccc(C(=O)NCc3ccc(Cl)c(Cl)c3)cc2)c(CC)c1CC(=O)O` [Example 9.18] was 24.9 nM; that for `Cc1nn(Cc2ccc(NC(=O)/C=C/c3ccc(Cl)cc3)cc2)c(C)c1CC(=O)O` [Example 1.14] was 1.1 nM.
The same measure for `Cc1ccc(C(=O)Nc2ccc(Cn3nc(C)c(CC(=O)O)c3C)cc2)c(F)c1` [Example 1.20]: 29.3 nM.
Turning to `CCc1nn(Cc2ccc(NC(=O)c3ccccc3)cc2)c(CC)c1CC(=O)O` [Example 2.3], the Ki amounted to 3.4 nM. This Ki is about 8.6-fold lower than that of the molecule before.
The same measure for `CCCc1c(C)cccc1C(=O)Nc1ccc(Cn2nc(CC)c(CC(=O)O)c2CC)cc1` [Example 2.27]: 4.3 nM; for `COc1ccc(CCNS(=O)(=O)c2ccc(Cn3nc(C)c(CC(=O)O)c3C)cc2)cc1OC` [Example 10.2]: 742 nM.
The value for `CCc1nn(Cc2ccc(S(=O)(=O)Nc3ccc(C)c(Cl)c3)cc2)c(CC)c1CC(=O)O` [Example 10.3] was 16.1 nM.
The value for `Cc1nn(Cc2ccc(NC(=O)c3ccc(Cl)c(Cl)c3)cc2F)c(C)c1CC(=O)O` [Example 7.18] was 2.4 nM.
For the molecule `Cc1nn(Cc2ccc(NC(=O)c3ccc(Cl)cc3Cl)cc2)c(C)c1CC(=O)O` [Example 1.18], the inhibitory constant (Ki) amounted to 17.9 nM.
The same measure for `Cc1cc(Cn2nc(C)c(CC(=O)O)c2C)ccc1NC(=O)c1ccccc1` [Example 7.1]: 407 nM.
In turn, `Cc1nn(Cc2ccc(OCc3ccc(Cl)c(C(F)(F)F)c3)cc2)c(C)c1CC(=O)O` [Example 13.5] registered an inhibition constant (Ki) of 36 nM.
`CCc1nn(Cc2ccc(NC(=O)c3ccc4ccccc4c3Br)cc2)c(CC)c1CC(=O)O` [Example 2.26]: the affinity, expressed as Ki, was 3.6 nM.
The value for `CCc1nn(Cc2ccc([S+]([O-])Cc3ccccc3)cc2)c(CC)c1CC(=O)O` (stereo not shown) [Example 19.4] was 48.8 nM.
The same measure for `CCc1nn(Cc2ccc(NC(=O)[C@H]3CC[C@@H](C(F)(F)F)CC3)cc2)c(CC)c1CC(=O)O` [Example 2.16]: 23.9 nM; for `Cc1nn(Cc2ccc(NC(=O)c3ccc4ccccc4c3Br)cc2)c(C)c1CC(=O)O` [Example 1.30]: 14.6 nM; for `CCc1nn(Cc2ccc(NC(=O)c3ccc(Cl)c(Cl)c3)cc2)c(CC)c1CC(=O)O` [Example 2.6]: 0.25 nM.
The same measure for `Cc1nn(Cc2ccc(COc3ccc(Cl)c(Cl)c3)cc2)c(C)c1CC(=O)O` [Example 14.2]: 43 nM; for `Cc1nn(Cc2ccc(NC(=O)c3ccc4ccccc4c3)cc2)cc1CC(=O)O` [Example 2.57]: 19.3 nM.
On to `Cc1nn(Cc2ccc(NC(=O)NCc3ccccc3)cc2)c(C)c1CC(=O)O` [Example 4.1], for which the affinity corresponds to a Ki of 16.8 nM.
The value for `Cc1cc(C(F)(F)F)ccc1C(=O)Nc1ccc(Cn2nc(C)c(CC(=O)O)c2C)c(Cl)c1` [Example 7.14] was 1.6 nM; that for `Cc1nn(Cc2ccc(NC(=O)c3ccc(C(F)(F)F)cc3)cc2)c(C)c1CC(=O)NS(=O)(=O)C(C)(C)C` [Example 11.1] was 29.4 nM.
The value for `Cc1nn(Cc2ccc(NC(=O)OC(C)(C)C)cc2)c(C)c1CC(=O)O` [Example 3.8] was 28.6 nM.
In the case of `Cc1nn(Cc2ccc(C#Cc3ccc(C(F)(F)F)cc3)cc2)c(C)c1CC(=O)O` [Example 12.1], the Ki was 127 nM. Compared with the last molecule, the Ki is about 4.4-fold higher.
The same measure for `Cc1nn(Cc2ccc(NC(=O)c3ccccc3)cc2)c(C)c1CCC(=O)O` [Example 8.3]: 3760 nM.
The molecule `O=C(O)Cc1c(-c2ccccc2)nn(Cc2ccc(NC(=O)c3ccc(C(F)(F)F)cc3)cc2)c1-c1ccccc1` [Example 2.45] had a Ki of 8.9 nM.
The value for `Cc1nn(Cc2ccc(NC(=O)c3ccc(C(C)(C)C)cc3)cc2)c(C)c1CC(=O)O` [Example 1.15] was 0.2 nM; that for `Cc1nn(Cc2ccc(NC(=O)c3ccc(C(C)(C)C)cc3)cc2)c(C)c1CCC(=O)O` [Example 8.4] was 26.1 nM.
Molecule `CCc1nn(Cc2ccc(NC(=O)c3ccc4ccccc4c3)cc2)c(CC)c1CC(=O)O` [Example 2.14] displayed a Ki of 0.2 nM. Compared with the last molecule, the Ki is about 130-fold lower.
The value for `CCc1nn(Cc2ccc(NC(=O)C3CCC3)cc2)c(CC)c1CC(=O)O` [Example 2.31] was 5 nM; that for `Cc1nn(Cc2ccc(C(=O)Cc3ccccc3)cc2)c(C)c1CC(=O)O` [Example 15.2] was 552 nM; that for `CCc1nn(Cc2ccc(C(=O)Nc3ccc(Cl)c(C(F)(F)F)c3)cc2)c(CC)c1CC(=O)O` [Example 9.13] was 0.9 nM.
The value for `Cc1nn(Cc2ccc(NC(=O)/C=C/c3ccccc3)cc2F)c(C)c1CC(=O)O` [Example 7.21] was 1.9 nM.
The same measure for `CCc1nn(Cc2ccc(NC(=O)OCc3ccc(Cl)c(Cl)c3)cc2)c(CC)c1CC(=O)O` [Example 3.9]: 0.1 nM; for `CCc1nn(Cc2ccc(NC(=O)C3CCCC3)cc2)c(CC)c1CC(=O)O` [Example 2.32]: 2.6 nM.
Take `CCc1nn(Cc2ccc(NC(=O)C(C)(C)C)cc2)c(CC)c1CC(=O)O` [Example 2.30]: the Ki amounted to 5.8 nM.
The same measure for `CCc1c(CC(=O)O)cnn1Cc1ccc(NC(=O)c2ccc3ccccc3c2)cc1` [Example 2.59]: 17.4 nM; for `Cc1nn(Cc2ccc(NC(=O)c3ccc4ccccc4n3)cc2)c(C)c1CC(=O)O` [Example 1.9]: 28.3 nM; for `Cc1nn(Cc2ccc(NC(=O)c3ccc(C(F)(F)F)cc3)cc2F)c(C)c1CC(=O)O` [Example 7.17]: 1.1 nM.

The Ki is a dissociation constant, usually derived from enzyme kinetics or from competition with a known ligand. A high value points to lower affinity.
